According to PMC8428802 (Journal of medicinal chemistry, 2020):

Legend:
[1] = test system: HEK293 cells lacking GPR52; test: cAMP control study in HEK293 cells lacking GPR52; assay type: cell-based, human
hERG = hERG (Homo sapiens, UniProt Q12809); test: NIMH-PDSP counter screening, hERG binding; details: 10 μM
[2] = biological target: over 30 brain receptors or channels; test: NIMH-PDSP broad-panel counter screening; assay type: binding; details: 10 μM
human GPR52 = human GPR52 (Homo sapiens, UniProt Q9Y2T5); test: Glosensor cAMP assay in HEK293 cells transiently expressing human GPR52; assay type: cell-based; details: for decreased EC50 (loss of potency): comparator not stated
Sequence of human GPR52 (Q9Y2T5 whole entry): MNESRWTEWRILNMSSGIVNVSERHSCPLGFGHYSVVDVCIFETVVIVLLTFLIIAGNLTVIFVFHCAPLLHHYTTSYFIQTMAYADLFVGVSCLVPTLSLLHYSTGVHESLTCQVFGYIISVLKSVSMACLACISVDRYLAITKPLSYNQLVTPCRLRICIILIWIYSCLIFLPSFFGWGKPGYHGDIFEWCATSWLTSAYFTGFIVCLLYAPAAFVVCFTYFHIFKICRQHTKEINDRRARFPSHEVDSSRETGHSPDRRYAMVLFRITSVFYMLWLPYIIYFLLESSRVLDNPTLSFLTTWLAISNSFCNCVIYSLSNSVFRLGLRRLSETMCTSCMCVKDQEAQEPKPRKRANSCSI

Sequence of hERG (Q12809 whole entry): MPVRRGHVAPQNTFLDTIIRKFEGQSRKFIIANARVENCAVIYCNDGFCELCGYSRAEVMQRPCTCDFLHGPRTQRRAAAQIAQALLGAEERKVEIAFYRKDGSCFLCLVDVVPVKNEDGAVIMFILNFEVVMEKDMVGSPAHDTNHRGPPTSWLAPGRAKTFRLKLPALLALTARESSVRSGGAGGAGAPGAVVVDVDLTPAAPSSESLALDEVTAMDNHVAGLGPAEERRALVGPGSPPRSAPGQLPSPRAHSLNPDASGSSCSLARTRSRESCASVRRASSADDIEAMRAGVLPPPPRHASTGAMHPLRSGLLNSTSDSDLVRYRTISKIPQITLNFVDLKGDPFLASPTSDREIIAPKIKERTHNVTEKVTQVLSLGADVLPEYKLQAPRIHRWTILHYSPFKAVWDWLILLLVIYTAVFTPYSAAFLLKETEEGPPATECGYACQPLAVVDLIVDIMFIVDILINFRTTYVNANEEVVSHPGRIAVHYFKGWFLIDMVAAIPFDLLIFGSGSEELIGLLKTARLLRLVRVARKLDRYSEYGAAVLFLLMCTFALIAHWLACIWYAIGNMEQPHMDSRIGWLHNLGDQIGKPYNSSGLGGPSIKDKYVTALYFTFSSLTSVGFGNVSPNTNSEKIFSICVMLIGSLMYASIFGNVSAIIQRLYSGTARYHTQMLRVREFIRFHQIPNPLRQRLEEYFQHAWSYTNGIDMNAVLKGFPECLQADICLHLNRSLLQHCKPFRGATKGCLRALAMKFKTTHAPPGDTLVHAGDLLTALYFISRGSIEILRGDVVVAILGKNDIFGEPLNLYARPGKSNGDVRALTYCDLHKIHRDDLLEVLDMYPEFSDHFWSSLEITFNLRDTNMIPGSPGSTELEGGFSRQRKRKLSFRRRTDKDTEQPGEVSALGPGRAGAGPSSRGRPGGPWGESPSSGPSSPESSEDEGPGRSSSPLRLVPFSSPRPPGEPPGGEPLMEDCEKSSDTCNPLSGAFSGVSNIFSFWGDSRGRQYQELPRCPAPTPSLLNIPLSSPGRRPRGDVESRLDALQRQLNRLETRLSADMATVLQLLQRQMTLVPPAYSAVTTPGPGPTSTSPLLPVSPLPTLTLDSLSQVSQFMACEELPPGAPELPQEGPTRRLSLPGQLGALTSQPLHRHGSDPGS

Q: How did the “cAMP increase in cells lacking GPR52” value [1] turn out when O=C(NCCO)c1cccc2c1CCN2c1cc(Cc2cc(F)cc(C(F)(F)F)c2)ncn1 [Compound 12c, 1-(6-(3-Fluoro-5-(trifluoromethyl)benzyl)pyrimidin-4-yl)-N-(2-hydroxyethyl)indoline-4-carboxamide] was run?
A: did not increase cAMP

Q: And the “hERG potassium channel binding activity” value (hERG)?
A: did not show any

Q: What about the “binding affinity (Ki) at panel” value [2] of the same molecule?
A: no significant binding affinity

Q: Which “decreased EC50 (loss of potency)” value (human GPR52) does the source give for Cc1c(Cc2cc(F)cc(C(F)(F)F)c2)cnnc1N1CCc2c(C(=O)NCCO)cccc21 [Compound 12e, 1-(5-(3-Fluoro-5-(trifluoromethyl)benzyl)-4-methylpyridazin-3-yl)-N-(2-hydroxyethyl)indoline-4-carboxamide] here?
A: > 4 fold

Q: O=C(NCCO)c1cccc2c1CCN2c1nncc(Cc2cc(F)cc(C(F)(F)F)c2)c1Cl [Compound 12f, 1-(4-Chloro-5-(3-fluoro-5-(trifluoromethyl)benzyl)-pyridazin-3-yl)-N-(2-hydroxyethyl)indoline-4-carboxamide] was tested. Which “decreased EC50 (loss of potency)” value (human GPR52) did it give?
A: > 4 fold

Q: O=C(NCCO)c1cccc2c1CCN2c1cc(Cc2ccccc2C(F)(F)F)ncn1 [Compound 23b, N-(2-Hydroxyethyl)-1-(6-(2-(trifluoromethyl)benzyl)-pyrimidin-4-yl)indoline-4-carboxamide] was tested. Which “loss of potency relative to 23a” value (human GPR52; EC50 vs compound 23a) did it give?
A: > 7 fold
